Experimental data from US20240285652A1, “AMORPHOUS NANO-MOLECULAR AGGREGATE COMPOSED OF ORGANIC MATERIAL, INORGANIC MATERIAL, OR SALT THEREOF, AND METHOD FOR PREPARING SAME” (SCAI THERAPEUTICS CO., LTD., priority 2021, published 2024).

Assay: Corneal permeation experiment in Ussing chamber
Assay type: in vitro ADME
Conditions: pig cornea, 37° C., after 18 hours
Experimental: The corneal permeation experiment was conducted with reference to the contents of “Lee et. al, “Modulating the Transport Characteristics of Bruch's Membrane With Steroidal Glycosides and its Relevance to Age-Related Macular Degeneration (AMD). Invest. Ophthalmol. Vis. Sci. 2015, 56, 8403, 2015,” which is an already published paper. […] Basically, the drug is put into the donor chamber of the Ussing chamber, the corneal part of the pig eye is collected in a circular shape of 8 mm in size, and other tissues attached to the cornea were removed, and then fixed in place of the membrane, and the solution permeating the membrane was received in the receiving chamber, and at this time, it was placed in a constant temperature chamber in which the temperature at which diffusion occurs was adjusted to 37° C., which is close to human body temperature, and stored. After a certain amount of time passed, the diffusion properties of each sample could be identified by measuring the concentration of the solution in each donor chamber and receiving chamber. For the concentration, UV/VIS spectrum (Evolution201 UV/Vis; Thermo) was used, and the concentration was measured using a peak height at 420 nm.

- Drug in corneal tissue (μg, Mean ± SD): 65.7 ± 7.5 µg
- Drug in receiver (μg, Mean ± SD): 8.8 ± 5.8 µg
- Transport percentage* (%, Mean ± SD): 1.6 ± 1.1%
Structure (SMILES): CCN(CC)CCNC(=O)c1c(C)[nH]c(/C=C2\C(=O)Nc3ccc(F)cc32)c1C [Comparative Example 2, sunitinib-malate]
